The nature of experiment [1]: Peg3 promoter luciferase inhibitors, potency, dose response, cell-based, HeLa, CREF/GAPDH counter-screen panel (AID 624167). The conditions noted are these: CREF/GAPDH counter-screens; GAPDH; mean of runs. In general terms: The purpose of a counterscreen is to sort out artefacts and off-target activity.
The next experiment has as its system Rat fibroblasts (CREF). The experiment is described as above. The conditions noted are these: CREF/GAPDH counter-screens.
Experiment [2] has as its system PEG-3. The description is as above. The conditions noted are these: HeLa PEG-Prom luciferase reporter, overnight, CREF/GAPDH counter-screens.
The next experiment relates to GAPDH. Described as above. To be noted: CREF/GAPDH counter-screens.
Experiment [3] has as its target PEG-3 (UniProt Q6IN02). The experiment is described as above. To be noted: HeLa PEG-Prom luciferase reporter, overnight, CREF/GAPDH counter-screens, mean of runs. A general note: In a reporter assay the amount or activity of a reporter protein is the signal.
Setting [4] is: run 1, dose range 1, individual replicate IC50 per panel.
Setting [5] is: run 2, dose range 1, individual replicate IC50 per panel.

From PubChem BioAssay AID624167 (Sanford-Burnham Center for Chemical Genomics, 2012) come the findings set out here.

Calls of active or inactive are those of the source.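 How the source made its calls: active means mean IC50 for reducing PEG3 promoter reporter signal at or below a set limit, with IC50 above the limit in both counter screens; inactive means the rest, including counter screen hits.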

Chain of PEG-3 (UniProt Q6IN02) (Q6IN02 whole entry, looked up): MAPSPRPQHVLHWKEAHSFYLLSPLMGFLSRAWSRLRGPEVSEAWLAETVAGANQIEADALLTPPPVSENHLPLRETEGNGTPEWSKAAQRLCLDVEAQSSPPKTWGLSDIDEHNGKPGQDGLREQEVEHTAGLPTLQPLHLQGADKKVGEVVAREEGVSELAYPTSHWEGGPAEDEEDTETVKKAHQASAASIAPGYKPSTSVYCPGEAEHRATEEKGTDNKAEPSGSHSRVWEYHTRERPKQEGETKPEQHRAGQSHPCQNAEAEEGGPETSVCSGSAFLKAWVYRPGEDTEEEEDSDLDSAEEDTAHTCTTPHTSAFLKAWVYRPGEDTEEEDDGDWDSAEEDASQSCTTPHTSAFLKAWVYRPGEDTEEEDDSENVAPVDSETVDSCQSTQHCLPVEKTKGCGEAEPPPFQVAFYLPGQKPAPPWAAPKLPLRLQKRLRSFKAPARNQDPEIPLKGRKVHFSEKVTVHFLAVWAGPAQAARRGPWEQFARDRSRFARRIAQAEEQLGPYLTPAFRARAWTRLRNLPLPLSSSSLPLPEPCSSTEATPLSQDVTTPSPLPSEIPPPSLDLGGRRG

As usually defined, the IC50 is the concentration at which inhibition is half-maximal. For `Cc1oc(-c2ccc3c(c2)OCCO3)cc1C(=O)O`, the IC50 was 5.18 µM in experiment [1]; 34.2 µM in the experiment on Rat fibroblasts (CREF) (mean of runs); 31.2 µM with Rat fibroblasts (CREF) (setting [4]); 37.3 µM in the experiment on Rat fibroblasts (CREF) (setting [5]); 3.12 µM in the experiment with PEG-3 [2] (setting [4]); 4.73 µM in the experiment on PEG-3 [2] (setting [5]). Further, the IC50 in the experiment on GAPDH (setting [4]) was 4.06 µM; with GAPDH (setting [5]), 6.29 µM; at PEG-3 [3], 3.93 µM.
As for `COC1CC(C)C(OC)c2cc(O)cc(c2O)NC(=O)C(C)=CC=CC(C)C(OC(N)=O)C(C)=CC(C)C1OC` (stereo not drawn), in experiment [1], the IC50 result was “inactive”. Besides, the IC50 was > 100 µM (inactive) in the experiment on Rat fibroblasts (CREF) (mean of runs); more than 100 µM in the experiment with Rat fibroblasts (CREF) (setting [4]); more than 100 µM in the experiment with Rat fibroblasts (CREF) (setting [5]); 22.2 µM in the experiment with PEG-3 [2] (setting [4]); 5.41 µM with PEG-3 [2] (setting [5]); 45.1 µM with GAPDH (setting [4]). Moreover, the results for the IC50 in the experiment on GAPDH (setting [5]) and at PEG-3 [3] were 45.7 µM and 13.8 µM, respectively.
Regarding `COc1cccc2c1C(=O)c1c(O)c3c(c(O)c1C2=O)CC(O)(C(C)=NNC(=O)c1ccc(Cl)c(Cl)c1)CC3OC1CC(N)C(O)C(C)O1` (stereo not drawn), the IC50 in experiment [1] was 7.16 µM; with Rat fibroblasts (CREF) (mean of runs) it was 0.588 µM; in the experiment with Rat fibroblasts (CREF) (setting [4]) it was 0.717 µM; in the experiment on Rat fibroblasts (CREF) (setting [5]), 0.46 µM; with PEG-3 [2] (setting [4]), 1.43 µM; with PEG-3 [2] (setting [5]), 0.476 µM. The IC50 is 3.35 µM in the experiment with GAPDH (setting [4]), 11 µM with GAPDH (setting [5]) and 0.954 µM on PEG-3 [3].
With `COc1cc(CNCCCN2CCOCC2)cc(Br)c1OCc1ccc(Cl)cc1`, the IC50 in experiment [1] is 12.3 µM; in the experiment with Rat fibroblasts (CREF) (mean of runs) it was 14.4 µM; with Rat fibroblasts (CREF) (setting [4]) it was more than 80 µM; in the experiment on Rat fibroblasts (CREF) (setting [5]), 14.4 µM; in the experiment on PEG-3 [2] (setting [4]) it was 9.57 µM; in the experiment with PEG-3 [2] (setting [5]), 8.99 µM. Further, the half-inhibitory concentration (IC50) in the experiment with GAPDH (setting [4]) was 15.3 µM; in the experiment with GAPDH (setting [5]), 9.28 µM; on PEG-3 [3], 9.28 µM.
Turning to `O=C(CNc1ccccc1)N/N=C/c1c(O)ccc2ccccc12`, the IC50 in experiment [1] is > 100 µM (inactive); in the experiment with Rat fibroblasts (CREF) (mean of runs), 51.1 µM (inactive); in the experiment on Rat fibroblasts (CREF) (setting [4]), 57.4 µM; in the experiment on Rat fibroblasts (CREF) (setting [5]), 44.9 µM; in the experiment on PEG-3 [2] (setting [4]), 3.48 µM; in the experiment with PEG-3 [2] (setting [5]), more than 100 µM. For the same compound, the IC50 with GAPDH (setting [4]) and with GAPDH (setting [5]) was more than 100 µM each time. For the same compound, the IC50 result at PEG-3 [3] is “inactive”.
Turning to `CCCC(=O)NC(c1ccc(N(C)C)cc1)c1ccc2cccnc2c1O` (stereo not drawn), the IC50 in experiment [1] was > 100 µM (inactive); in the experiment with Rat fibroblasts (CREF) (mean of runs) it was 72.3 µM (inactive); with Rat fibroblasts (CREF) (setting [4]), more than 100 µM; in the experiment with Rat fibroblasts (CREF) (setting [5]), 44.7 µM; in the experiment on PEG-3 [2] (setting [4]), 2.74 µM; in the experiment on PEG-3 [2] (setting [5]), 0.758 µM. In addition, the IC50 in the experiment on GAPDH (setting [4]) was more than 100 µM; in the experiment on GAPDH (setting [5]), more than 100 µM; at PEG-3 [3] it was 1.75 µM.
On to `O=C(NNC(=O)c1cccnc1SCc1cccc([N+](=O)[O-])c1)c1ccccn1`, for which the IC50 in experiment [1] was > 100 µM (inactive); in the experiment with Rat fibroblasts (CREF) (mean of runs), 31.4 µM; in the experiment with Rat fibroblasts (CREF) (setting [4]), 5.66 µM; with Rat fibroblasts (CREF) (setting [5]), 57.1 µM; in the experiment on PEG-3 [2] (setting [4]) it was 2.76 µM; with PEG-3 [2] (setting [5]), 4.45 µM. For the same compound, the IC50 in the experiment with GAPDH (setting [4]) is more than 100 µM; in the experiment with GAPDH (setting [5]), more than 100 µM; on PEG-3 [3] it was 3.6 µM.
With `O=C(CCn1cnc(-c2ccccc2)c1-c1ccccc1)N/N=C/c1ccccc1O`, in experiment [1], the IC50 result was “inactive”. Besides, the IC50 was 63.2 µM (inactive) in the experiment on Rat fibroblasts (CREF) (mean of runs); more than 100 µM with Rat fibroblasts (CREF) (setting [4]); 26.4 µM in the experiment on Rat fibroblasts (CREF) (setting [5]); 5.32 µM in the experiment with PEG-3 [2] (setting [4]); 4.93 µM in the experiment on PEG-3 [2] (setting [5]); 49.7 µM with GAPDH (setting [4]). Further, the results for the IC50 in the experiment on GAPDH (setting [5]) and on PEG-3 [3] were more than 100 µM and 5.13 µM, respectively.
`COc1cc(/C=C2\SC(=Nc3ccccc3OC)NC2=O)ccc1O`: the IC50 in experiment [1] is > 100 µM (inactive); with Rat fibroblasts (CREF) (mean of runs) it was > 100 µM (inactive); in the experiment with Rat fibroblasts (CREF) (setting [4]) it was more than 100 µM; in the experiment on Rat fibroblasts (CREF) (setting [5]), more than 100 µM; in the experiment on PEG-3 [2] (setting [4]), 4.7 µM; in the experiment on PEG-3 [2] (setting [5]), more than 100 µM. In addition, the IC50 in the experiment on GAPDH (setting [4]) and in the experiment with GAPDH (setting [5]) was more than 100 µM throughout. Besides, at PEG-3 [3], the IC50 result is “inactive”.
`O=C(N/N=C/c1cc([N+](=O)[O-])ccc1O)c1ccc(COc2ccc3c(c2)CCC3)o1`: the IC50 in experiment [1] is > 100 µM (inactive); in the experiment on Rat fibroblasts (CREF) (mean of runs), 76.8 µM (inactive); with Rat fibroblasts (CREF) (setting [4]), more than 100 µM; in the experiment on Rat fibroblasts (CREF) (setting [5]), 53.7 µM; with PEG-3 [2] (setting [4]), 7.48 µM; with PEG-3 [2] (setting [5]), 10.9 µM. Also, the IC50 was more than 100 µM in the experiment on GAPDH (setting [4]), more than 100 µM in the experiment on GAPDH (setting [5]) and 9.2 µM on PEG-3 [3].
For the compound `CCCn1nc(C(=O)Nc2nc(-c3ccccn3)cs2)c2ccccc2c1=O`, the IC50 entry in experiment [1] was “inactive”. Besides, the IC50 in the experiment on Rat fibroblasts (CREF) (mean of runs) is > 100 µM (inactive); with Rat fibroblasts (CREF) (setting [4]), more than 100 µM; in the experiment with Rat fibroblasts (CREF) (setting [5]) it was more than 100 µM; with PEG-3 [2] (setting [4]), 7.15 µM; with PEG-3 [2] (setting [5]), 8.31 µM; in the experiment on GAPDH (setting [4]) it was more than 100 µM. Moreover, the IC50 in the experiment on GAPDH (setting [5]) was 80.9 µM; at PEG-3 [3], 7.73 µM.
Consider `CCC(C)Cn1c(O)cc2nn(-c3nc4ccccc4s3)c(=O)c-2c1C` (stereo not drawn), for which the IC50 is 2.79 µM in experiment [1]; 65.6 µM (inactive) in the experiment with Rat fibroblasts (CREF) (mean of runs); 72.2 µM in the experiment with Rat fibroblasts (CREF) (setting [4]); 58.9 µM in the experiment with Rat fibroblasts (CREF) (setting [5]); 5.8 µM in the experiment on PEG-3 [2] (setting [4]); less than 0.2 µM in the experiment with PEG-3 [2] (setting [5]). Besides, the IC50 in the experiment with GAPDH (setting [4]) was 3.06 µM; with GAPDH (setting [5]), 2.52 µM; at PEG-3 [3], 3 µM.
Regarding `CCCC(=O)NC(c1ccccc1)c1ccc2cccnc2c1O` (stereo not drawn), the IC50 is > 100 µM (inactive) in experiment [1]; 13.1 µM in the experiment on Rat fibroblasts (CREF) (mean of runs); 0.587 µM in the experiment with Rat fibroblasts (CREF) (setting [4]); 25.7 µM with Rat fibroblasts (CREF) (setting [5]); 3.04 µM with PEG-3 [2] (setting [4]); 1.91 µM with PEG-3 [2] (setting [5]). Further, the IC50 in the experiment on GAPDH (setting [4]) was more than 100 µM; in the experiment with GAPDH (setting [5]), more than 100 µM; on PEG-3 [3] it was 2.47 µM.
For the compound `COc1ccc(/C=C2/CCCC(CN(C)C)C2=O)cc1` (stereo not drawn), in experiment [1], the IC50 entry was “inactive”. Moreover, the IC50 in the experiment with Rat fibroblasts (CREF) (mean of runs) is 28.8 µM; with Rat fibroblasts (CREF) (setting [4]) it was 23.6 µM; with Rat fibroblasts (CREF) (setting [5]), 34 µM; in the experiment on PEG-3 [2] (setting [4]) it was 11.3 µM; with PEG-3 [2] (setting [5]), 8.07 µM; with GAPDH (setting [4]), 38.2 µM. Also, the figures for the IC50 in the experiment with GAPDH (setting [5]) and at PEG-3 [3] were 23.9 µM and 9.68 µM, respectively.
As for `Oc1[nH]c2ccc(Br)cc2c1N=NC(=S)N1CCOCC1`, the IC50 was 13.8 µM in experiment [1]; 50.3 µM (inactive) in the experiment on Rat fibroblasts (CREF) (mean of runs); more than 100 µM in the experiment with Rat fibroblasts (CREF) (setting [4]); 0.611 µM in the experiment on Rat fibroblasts (CREF) (setting [5]); 1.25 µM in the experiment on PEG-3 [2] (setting [4]); 0.885 µM with PEG-3 [2] (setting [5]). Further, the IC50 in the experiment on GAPDH (setting [4]) was 18.8 µM; in the experiment on GAPDH (setting [5]) it was 8.78 µM; at PEG-3 [3], 1.07 µM.
For `COc1cccc(/C=N/NC(=O)c2c(C)nc3ccc(Cl)cn23)c1O`, the IC50 is > 100 µM (inactive) in experiment [1]; 69.6 µM (inactive) with Rat fibroblasts (CREF) (mean of runs); more than 100 µM in the experiment with Rat fibroblasts (CREF) (setting [4]); 39.3 µM with Rat fibroblasts (CREF) (setting [5]); 0.994 µM with PEG-3 [2] (setting [4]); 0.513 µM in the experiment with PEG-3 [2] (setting [5]). Further, the figures for the IC50 with GAPDH (setting [4]), in the experiment with GAPDH (setting [5]) and at PEG-3 [3] were more than 100 µM, more than 100 µM and 0.754 µM, respectively.
On to `O=C(COc1ccc2c(c1)CCC2)Nc1ccccn1`, for which the IC50 in experiment [1] was 5.82 µM; in the experiment on Rat fibroblasts (CREF) (mean of runs) it was 33.2 µM; with Rat fibroblasts (CREF) (setting [4]), 29.2 µM; in the experiment on Rat fibroblasts (CREF) (setting [5]), 37.2 µM; in the experiment on PEG-3 [2] (setting [4]) it was 3.52 µM; with PEG-3 [2] (setting [5]), 5.59 µM. Also, the values for the IC50 in the experiment with GAPDH (setting [4]), in the experiment with GAPDH (setting [5]) and on PEG-3 [3] were 2.94 µM, 8.7 µM and 4.55 µM, respectively.
